Reference: paper PMC3368886, “ATPase Cycle and DNA Unwinding Kinetics of RecG Helicase” (PLoS ONE, 2012)

What was measured:
RecG [1] = target: T1, RecG (Thermotoga maritima, UniProt Q9WY48); parameters: method as in PMID 16363810; settings: much lower concentration of DNA; cited from earlier work
T1 construct: made in house
T1 sequence (Q9WY48 1-780): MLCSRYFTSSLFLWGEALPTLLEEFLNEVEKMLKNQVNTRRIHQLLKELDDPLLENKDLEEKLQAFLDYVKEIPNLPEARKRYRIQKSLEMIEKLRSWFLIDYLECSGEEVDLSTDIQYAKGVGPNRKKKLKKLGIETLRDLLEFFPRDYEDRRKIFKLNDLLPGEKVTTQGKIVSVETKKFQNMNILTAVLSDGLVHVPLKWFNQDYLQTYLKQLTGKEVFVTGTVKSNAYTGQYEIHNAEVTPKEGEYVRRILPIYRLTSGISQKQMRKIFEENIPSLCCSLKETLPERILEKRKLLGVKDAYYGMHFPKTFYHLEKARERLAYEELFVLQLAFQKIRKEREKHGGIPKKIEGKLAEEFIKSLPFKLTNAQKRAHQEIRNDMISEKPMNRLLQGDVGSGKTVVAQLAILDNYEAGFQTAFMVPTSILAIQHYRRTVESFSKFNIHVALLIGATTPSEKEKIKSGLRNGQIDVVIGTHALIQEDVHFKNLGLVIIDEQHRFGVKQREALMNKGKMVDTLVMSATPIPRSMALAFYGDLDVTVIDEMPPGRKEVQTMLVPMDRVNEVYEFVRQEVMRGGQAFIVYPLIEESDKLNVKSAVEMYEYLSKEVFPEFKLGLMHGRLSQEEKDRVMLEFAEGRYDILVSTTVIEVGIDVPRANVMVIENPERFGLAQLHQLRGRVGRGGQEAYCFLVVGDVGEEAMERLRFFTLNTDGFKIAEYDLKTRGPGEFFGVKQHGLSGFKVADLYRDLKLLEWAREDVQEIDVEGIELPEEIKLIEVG

RecG [2] = target: T1, RecG; test: Steady-state ATPase rate measurements with phosphate biosensor MDCC-PBP; format: biochemical; settings: no DNA, 20°C, 10 nM RecG
RecG⋅DNA(A40:B40) = target: T2, RecG⋅DNA(A40:B40) (Thermotoga maritima, UniProt Q9WY48); test: Single turnover Pi release kinetics with MDCC-PBP; format: biochemical
T2 construct: made in house
T2 sequence (Q9WY48 1-780): T1 sequence (Q9WY48 1-780)
Protocol: Using the phosphate biosensor, MDCC-PBP [13], the kinetics of Pi release were measured under the same conditions (Figure 4A). Fitting the trace by a lag then a single exponential increase gave rate constants of 3.3 s^−1 and 0.21 s^−1. This rate constant for the lag was similar to the observed rate constant for binding at this concentration. The exponential increase had the same rate constant for the slow phase of the mant fluorescence and for the quench-flow measurement of mantADP formation. Thus Pi release occurs rapidly, following the rate-determining cleavage step.
Stopped-flow experiments were performed in a HiTech SF61DX2 apparatus (TgK Scientific Ltd, Bradford-on-Avon, UK) with a mercury-xenon light source and HiTech KinetAsyst 3 or Kinetic Studio 1 software. For MDCC-PBP fluorescence, the excitation wavelength used was 436 nm and a 455 nm cut-off filter (Schott glass) used to collect emitted light. The signal was calibrated using known concentrations of Pi. The solutions contained the Pi mop, to minimize phosphate contamination and comprising 0.01 unit ml^−1 bacterial purine nucleoside phosphorylase and 200 µM 7-methylguanosine. For mant fluorescence, 366 nm was used to excite and a 400 nm cut-off filter (Schott glass) used to collect light. Measurements of Cy3 fluorescence used 547 nm excitation and a 570 nm cut-off filter. In experiments described, the quoted concentrations are those in the mixing chamber, except where stated. Data were fitted to theoretical curves using the HiTech software or Grafit.

RecG [3] = target: T1, RecG; test: mantATP cleavage (acid quench) and Pi release in the absence of DNA; format: biochemical
Protocol: As done for the RecG⋅DNA complex, measurements were also taken with an excess of RecG over mantATP (Figure S3B). A large, relative rapid, increase in mant fluorescence was observed followed by a small gradual increase. The rate constants are consistent with those at excess mantATP. Under the same conditions of excess RecG over mantATP, mantATP cleavage (acid quench) and Pi release were measured (Figure S3B). […] The cleavage step rate constant was 4×10^−4 s^−1, ∼10^3 slower than in the presence of DNA. […] The cleavage step was greatly stimulated by DNA.
Supplementary file pone.0038270.s003.tif: Figure S3 Kinetic measurements in the absence of DNA. (A) Association kinetics with mantATP. Dependence of the observed rate constants on mantATP concentration from mixing 0.5 µM RecG with excess mantATP under the same conditions as Figure 3. Points shown are typically an average of three individual measurements. The best linear fit gives a slope of 0.4 (±0.15) µM^−1 s^−1 and intercept 1.7 (±0.6) s^−1. (B) Fluorescence trace upon mixing 2.5 µM RecG with 0.5 µM mantATP under the conditions of Figure 4. […] Note that as the fluorescence slowly increases beyond the time course, it was not possible to calibrate the ordinate. […] Pi release kinetics (continuous line) were measured for the same mixture containing 10 µM MDCC-PBP. […]

RecG [4] = target: T1, RecG; test: Phosphate-water oxygen exchange during hydrolysis; format: biochemical; settings: 20°C, Table 2 summary
[5] = 0.5 µM mantATP, 2.5 µM RecG, 5 µM DNA

SMILES	K m previously reported (RecG [1]) [µM]	k cat previously reported (RecG [1]) [s⁻¹]	K m (RecG [2])	k cat (RecG [2])	Pi release: rate constant of exponential increase (RecG⋅DNA(A40:B40); [5]) [s⁻¹]	Pi release: rate constant of lag (RecG⋅DNA(A40:B40); [5]) [s⁻¹]	k +3 (Pi release) (RecG⋅DNA(A40:B40); 20°C, Table 2 summary) [s⁻¹]	cleavage step rate constant (RecG [3]; absence of DNA, excess RecG over mantATP) [s⁻¹]	cleavage slower than in the presence of DNA (RecG [3]; absence vs presence of DNA)	k −2 (reverse of cleavage) (RecG [4]) [s⁻¹]
Nc1ncnc2c1ncn2[C@@H]1O[C@H](COP(=O)(O)OP(=O)(O)OP(=O)(O)O)[C@@H](O)[C@H]1O [ATP]	42	5.2	7.5 (±3.1) µM	0.2 (±0.1) s^−1						
CNc1ccccc1C(=O)O[C@H]1[C@@H](O)[C@H](n2cnc3c(N)ncnc32)O[C@@H]1COP(=O)(O)OP(=O)(O)OP(=O)(O)O [mantATP, 2′(3′)-O-(N-methylanthraniloyl)ATP]					0.21	3.3	>10	0.0004	~10^3	<0.01
